Test results reported in publication PMC7915026, “Sulfaguanidine Hybrid with Some New Pyridine-2-One Derivatives: Design, Synthesis, and Antimicrobial Activity against Multidrug-Resistant Bacteria as Dual DNA Gyrase and DHFR Inhibitors” (Antibiotics, 2021).
≈ marks a conversion by molar mass, not a printed value. Like-named read-outs stand apart in the source and are kept apart here.

What was measured:
[1] = system: C. albicans (ATCC 10231); assay: MIC and MFC determination; assay type: cell-based
[2] = system: F. oxysporum (RCMB 008002); assay: Inhibition zone, paper disk/agar diffusion; assay type: cell-based; conditions: Na = no activity
Text: (§1) The antimicrobial activity performed at the bacteriology laboratory, Botany and Microbiology Department, Faculty of Science, Al-Azhar University, Cairo, Egypt. The inhibition zone (IZ) of the tested derivatives expressed as the diameter (mm) according to the agar plate diffusion method.

[3] = system: C. albicans (ATCC 10231); assay: Inhibition zone, paper disk/agar diffusion; assay type: cell-based; conditions: Na = no activity
Text: as §1

[4] = system: F. oxysporum (RCMB 008002); assay: MIC and MFC determination; assay type: cell-based
[5] = system: B. subtilis ATCC 6633; assay: Inhibition zone, paper disk/agar diffusion; assay type: cell-based; conditions: B. subtilis; Na = no activity
Text: as §1

[6] = system: E. faecalis ATCC 29212; assay: Inhibition zone, paper disk/agar diffusion; assay type: cell-based; conditions: E. faecalis; Na = no activity
Text: as §1

[7] = system: P. aeruginosa ATCC 27853; assay: Inhibition zone, paper disk/agar diffusion; assay type: cell-based; conditions: P. aeruginosa; Na = no activity
Text: as §1

[8] = system: E. coli ATCC 25922; assay: Inhibition zone, paper disk/agar diffusion; assay type: cell-based; conditions: E. coli; Na = no activity
Text: as §1

[9] = system: S. typhi ATCC 6539; assay: Inhibition zone, paper disk/agar diffusion; assay type: cell-based; conditions: S. typhi; Na = no activity
Text: as §1

[10] = system: S. aureus ATCC 29213; assay: Inhibition zone, paper disk/agar diffusion; assay type: cell-based; conditions: S. aureus; Na = no activity
Text: as §1

[11] = system: CD4+ and CD8+ T lymphocytes; assay: In vivo T lymphocyte subsets from peripheral blood, flow cytometry; conditions: mice
Text: Activation of immune cells as CD4^+ and CD8^+ T cells is one possible mechanism of a drug’s immune stimulus activity. An increase in these cells is thought to be a good indicator of an active immune response to infections. So, our work extended to study the effect of the most promising derivatives (2d, 8, and 11) on T lymphocyte subsets (CD4^+ and CD8^+) from peripheral blood, and determined the relative level in model mice that analyzed by flow cytometry after the period of treating.
In vitro intracellular killing activities for the most promising six derivatives 2a, 2b, 2d, 3a, 8, and 11 were performed according to reported methods.

[12] = system: spleen and thymus; assay: In vivo immunomodulation: immune organ weight and indexes; conditions: mice
Text: Both the spleen and thymus have important antibacterial and fungal immune organ responses, and any change in weight, and indexes can reflect the level of immune regulation. Additionally, the relative spleen and thymus indexes are important indices for nonspecific immunity and potential immunomodulatory compounds that increase the spleen and thymus weight. This increase is due to immune cells’ stimulation in the spleen and thymus. […]

| Structure (SMILES) | Mean Diameter of the Inhibition Zone [2] | Mean Diameter of the Inhibition Zone [3] [mm] | Mean Diameter of the Inhibition Zone [5] [mm] | Mean Diameter of the Inhibition Zone [6] [mm] | Mean Diameter of the Inhibition Zone [7] [mm] | Mean Diameter of the Inhibition Zone [8] [mm] | Mean Diameter of the Inhibition Zone [9] | Mean Diameter of the Inhibition Zone [10] [mm] | melting point [°C] | other results |
| --- | --- | --- | --- | --- | --- | --- | --- | --- | --- | --- |
| C[C@@H]1[C@H](O)[C@@H](C)/C=C/C=C/C=C/C=C/C=C/C=C/C=C/[C@H](O[C@@H]2O[C@H](C)[C@@H](O)[C@H](N)[C@@H]2O)C[C@@H]2O[C@](O)(C[C@@H](O)C[C@@H](O)[C@H](O)CC[C@@H](O)C[C@@H](O)CC(=O)O[C@H]1C)C[C@H](O)[C@H]2C(=O)O [Amphotericin B, amphotericin B, reference compound] | 18 ± 0.32 mm | 22 ± 0.2 |  |  |  |  |  |  |  | MFC ([1]; Candida albicans, ATCC10231, read-out: MFC): 37.3 µM (≈ 34.4 µg/mL); MIC ([1]; Candida albicans, ATCC10231, read-out: MIC): 16.8 µM (≈ 15.5 µg/mL); MFC ([1]; listed as Amp. B): 37.26 ± 0.65 µM (≈ 34.4 µg/mL); MIC ([1]; listed as Amp. B): 16.81 ± 0.29 µM (≈ 15.5 µg/mL); Mean Diameter of the Inhibition Zone ([3]; listed as S2): 22 ± 0.20 mm; MFC ([4]; Fusarium oxysporum, RCMB008002, read-out: MFC): 70.6 µM (≈ 65.3 µg/mL); MIC ([4]; Fusarium oxysporum, RCMB008002, read-out: MIC): 33.6 µM (≈ 31.1 µg/mL); MFC ([4]; listed as Amp. B): 70.62 ± 0.76 µM (≈ 65.3 µg/mL); MIC ([4]; listed as Amp. B): 33.63 ± 0.98 µM (≈ 31.1 µg/mL) |
| N#CCC(=O)Nc1ccc(S(=O)(=O)NC(=N)N)cc1 [Compound 1, N-(4-(N-Carbamimidoylsulfamoyl)phenyl)-2-cyanoacetamide] | 13 ± 0.54 mm | 15 ± 0.63 | 14 ± 0.70 | 19 ± 0.70 | 20±0.65 | 16 ± 0.35 | 17 ± 0.54 mm | 17 ± 0.50 | 172 to 174 |  |
| N#C/C(=C\c1ccc(O)cc1)C(=O)Nc1ccc(S(=O)(=O)NC(=N)N)cc1 [Compound 2c, N-(4-(N-Carbamimidoylsulfamoyl)phenyl)-2-cyano-3-(4-hydroxyphenyl) acrylamide] | 14 ± 0.5 mm | 16 ± 0.52 | 20 ± 0.38 | 17 ± 0.37 | 20 ± 0.42 | 19 ± 0.75 | 17 ± 0.24 mm | 21 ± 0.85 | 256 to 258 |  |
| COc1ccc(-c2c(C#N)c(N)n(-c3ccc(S(=O)(=O)NC(=N)N)cc3)c(=O)c2C#N)cc1 [Compound 3b, 4-(6-Amino-3,5-dicyano-4-(4-methoxyphenyl)-2-oxopyridin-1(2H)-yl)-N-carbamimidoylbenzenesulfonamide] | no activity | 12 ± 0.36 |  | 19 ± 0.65 |  | 21 ± 0.11 | 14 ± 0.16 mm |  | 256 to 258 |  |
| N#Cc1c(-c2ccc(O)cc2)c(C#N)c(=O)n(-c2ccc(S(=O)(=O)NC(=N)N)cc2)c1N [Compound 3c, 4-(6-Amino-3,5-dicyano-4-(4-hydroxyphenyl)-2-oxopyridin-1(2H)-yl)-N-carbamimidoylbenzenesulfonamide] | 19 ± 0.55 mm | 22 ± 0.19 |  | 19 ± 0.33 | 17 ± 0.20 |  | 20 ± 0.33 mm |  | 265 to 268 |  |
| COc1ccc(-c2c(C#N)c(N)n(-c3ccc(S(=O)(=O)NC(=N)N)cc3)c(=O)c2C#N)cc1O [Compound 3d, 4-(6-Amino-3,5-dicyano-4-(3-hydroxy-4-methoxyphenyl)-2-oxopyridin-1(2H)-yl)-N-carbamimidoylbenzenesulfonamide] | no activity | 17 ± 0.21 | 20 ± 0.11 | 21 ± 0.54 |  | 22 ± 0.43 | 15 ± 0.36 mm | 23 ± 0.29 | 250 to 252 |  |
| COc1ccc(-c2c(C(=O)Nc3ccc(S(=O)(=O)NC(=N)N)cc3)c(N)n(C3CCCCC3)c(=O)c2C#N)cc1 [Compound 4, 2-Amino-N-(4-(N-carbamimidoylsulfamoyl)phenyl)-5-cyano-1-cyclohexyl-4-(4-methoxyphenyl)-6-oxo-1,6-dihydropyridine-3-carboxamide] | no activity | 20 ± 0.50 | 23 ± 0.22 | 25 ± 0.35 | 23 ± 0.74 |  | no activity | 24 ± 0.33 | 272 to 274 |  |
| COc1ccc(-c2c(C(=O)Nc3ccc(S(=O)(=O)NC(=N)N)cc3)c(N)[nH]c(=O)c2C#N)cc1 [Compound 6, 2-Amino-N-(4-(carbamimidoylsulfamoyl)phenyl)-5-cyano-4-(4-methoxyphenyl)-6-oxo-1,6-dihydropyridine-3-carboxamide] | 14 ± 0.38 mm | 18 ± 0.20 | 18 ± 0.12 |  |  |  | 12 ± 0.61 mm | 16 ± 0.54 | 265 to 268 |  |
| N#Cc1c(N)cc(N)n(-c2ccc(S(=O)(=O)NC(=N)N)cc2)c1=O [Compound 7, N-Carbamimidoyl-4-(4,6-diamino-3-cyano-2-oxopyridin-1(2H)-yl) benzenesulfonamide] | no activity | 13.0 ± 0.20 | 13 ± 0.41 | 14 ± 0.47 | 12 ± 0.63 |  |  |  | 260 |  |
| Cc1cc(C=Cc2ccc(Cl)cc2)c(C#N)c(=O)n1-c1ccc(S(=O)(=O)NC(=N)N)cc1 [Compound 9a, N-Carbamimidoyl-4-(4-(4-chlorostyryl)-3-cyano-6-methyl-2-oxopyridin-1(2H)-yl) benzene-sulfonamide] | no activity | 19 ± 0.65 | 22 ± 0.41 | 25 ± 0.11 |  | 18 ± 0.30 | 14 ± 0.52 mm | 17 ± 0.78 |  |  |
| COc1ccc(C=Cc2cc(C)n(-c3ccc(S(=O)(=O)NC(=N)N)cc3)c(=O)c2C#N)cc1 [Compound 9b, N-Carbamimidoyl-4-(3-cyano-4-(4-methoxystyryl)-6-methyl-2-oxopyridin-1(2H)-yl) benzene sulfonamide] | 15 ± 0.15 mm | 17 ± 0.56 | 23 ± 0.50 | 21 ± 0.55 | 16 ± 0.20 | 22 ± 0.81 | 20 ± 0.16 mm | 23 ± 0.12 |  |  |
| Cc1cc2csc(N)c2c(=O)n1-c1ccc(S(=O)(=O)NC(=N)N)cc1 [Compound 10, 4-(3-Amino-6-methyl-4-oxothieno[3,4-c]pyridin-5(4H)-yl)-N-carbamimidoylbenzenesulfon-amide] | 16 ± 0.86 mm | 14 ± 0.45 | 14 ± 0.56 | 19 ± 0.63 | 21 ± 0.54 | 20 ± 0.43 | 12 ± 0.35 mm | 17 ± 0.48 |  |  |
| N#Cc1c(N)n(-c2ccc(S(=O)(=O)NC(=N)N)cc2)c(=O)c2c(=N)oc3ccccc3c12 [Compound 12, 4-(2-Amino-1-cyano-5-imino-4-oxo-4H-chromeno[3,4-c]pyridin-3(5H)-yl)-N-cabamimidoylbenzenesulfonamide] | no activity | 12 ± 0.50 | 15 ± 0.45 | 12 ± 0.74 |  | 14 ± 0.21 |  |  | 266 to 268 |  |
| O=C1O[C@H]([C@@H](O)CO)C(O)=C1O [Vitamin C, vitamin C, reference compound] |  |  |  |  |  |  |  |  |  | T cells CD4+ [11]: 76.74 ± 0.7%; T cells CD8+ [11]: 19.62 ± 0.21%; Spleen weight [12]: 260 ± 0.028 mg; Thymus index [12]: 0.633 ± 0.06 mg/g; Thymus weight [12]: 17.2 ± 0.31 mg |
